{"source": "patent US20230101069A1", "about": "“AGENTS FOR USE IN THE TREATMENT OF TISSUE DAMAGE 2” (UCL BUSINESS LTD, priority 2020, published 2023)", "key": {"CRP [1]": {"target": "T1, CRP (Homo sapiens, UniProt P02741)", "T1 sequence (P02741 19-224)": "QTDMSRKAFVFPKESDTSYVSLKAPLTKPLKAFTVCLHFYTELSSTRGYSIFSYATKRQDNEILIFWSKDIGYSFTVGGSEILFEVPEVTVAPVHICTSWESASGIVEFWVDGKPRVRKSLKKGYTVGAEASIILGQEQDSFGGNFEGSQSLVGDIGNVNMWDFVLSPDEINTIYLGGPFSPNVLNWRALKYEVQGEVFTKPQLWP", "experiment": "MIRA immunoturbidimetric assay (inhibition of CRP recognition, COBAS MIRA autoanalyser)", "format": "binding", "design": "The final concentrations were 0.73 μM native pentameric CRP; from tissue", "text": "The CRP immunoturbidimetric assay on the Roche COBAS MIRA Plus autoanalyser, utilises two different sized latex particles that are covalently coupled with two different monoclonal antibodies with specificity for different CRP epitopes (5). The assay was validated by Roche for measurement of native pentameric CRP, for which it has high sensitivity and specificity and a high upper detection limit; it was calibrated against a standard produced in our laboratory. Serendipitously, one of the assay's antibodies binds to an epitope present on the ligand binding B face of CRP. Thus, when the binding pocket is occupied by ligand or is occluded, for example by B face to B face complexing of pentamers, the assay fails to detect CRP although it is demonstrable by other types of assays that employ antibodies which bind to different epitopes. Bivalent compounds such as BPC8 and APL-2191 were designed to crosslink pairs of CRP pentamers. Therefore, inhibition of CRP recognition in the MIRA assay is a convenient tool to monitor the efficacy and potency of complex formation between such ligands and CRP (6).\nCRP concentrations were measured in the presence and absence of ligands by the COBAS MIRA autoanalyser. Concentrated Tris-calcium buffer (×10 TC) was prepared in MilliQ water from trishydroxymethyamine (100 mM), calcium chloride (20 mM) and sodium chloride (1.4 M). The pH was adjusted to 8.0 using HCl and sodium azide was added (0.1% w/v); the buffer was stored at 4° C. A tenfold diluted working buffer (TC) was prepared by dilution 100 ml of the ×10 concentrated buffer with 900 ml of MilliQ water. Human CRP was isolated, purified and characterised as previously reported (6-9) and stored frozen at −80° C. When required, stock CRP was thawed at 37° C. and working dilutions prepared that were kept at 4° C. for the duration of an experiment. CRP concentration was determined spectrophotometrically (Beckman Coulter DU 650) in quartz cuvettes with a 1 cm light path, by measuring […] after correction for absorbance at 320 nm (light scattering) and using the measured absorption coefficient A (1%, 1 cm)=17.5 for human CRP (10). Human CRP at ˜90 μg/ml (0.78 μM of pentamer) in TC buffer was prepared from a stock solution; a 75 μl aliquot was used in the assay. Compounds were supplied by Wuxi AppTec (Wuhan, China) as solids. They were dissolved in TC buffer at suitable concentrations, depending on solubility, of up to 10 mM (labelled S1). They were then serially diluted 1:2 with TC buffer (100 μl ligand+200 μl TC) to provide up to 9 dilutions, S2-S10. A TC buffer control (50) was included in each assay. A 15 μl volume of each ligand solution was incubated with 75 μl of CRP for 1 h at room temperature. The final concentrations were 0.73 μM native pentameric CRP, ligands S1-S10=625-0.03 μM, corresponding to ligand:CRPr ratios of 850-0.04. Where compounds were of reduced solubility in TC buffer, lower stock concentrations were used (from 0.6 mM), corresponding to final top assay concentrations of 100 μM.\nData are expressed as measured CRP (mg/L) against final total ligand concentration (μM) and were plotted using Sigmaplot (V14) using the 4 parameter logistic curve y=min+(max−min)/(1+(x/EC50)[…]) to calculate EC50. Where appropriate, samples were also measured in whole normal human serum following the addition of a known amount of human CRP. All compounds were assayed in comparison with a highly purified preparation of bis(phosphocholine)octane (BPC8), that was prepared by Carbogen AMCIS AG and diluted into sterile water at 10 mM concentration. It was stored at −80° C. The solution was diluted into TC buffer as required."}, "CRP [2]": {"target": "T1, CRP", "conditions": "rats undergoing coronary artery ligation and receiving human CRP; cited from earlier work"}, "CRP [3]": {"target": "T1, CRP", "experiment": "inhibition of CRP binding in vitro", "conditions": "Pepys, unpublished observations"}, "CRP [4]": {"target": "T1, CRP", "experiment": "rat acute myocardial infarction model (coronary artery ligation) with administered human CRP", "format": "in vivo", "conditions": "ischaemia reperfusion design and terminal coronary artery ligation, Pepys, unpublished observations", "text": "Human CRP and activated rat complement were deposited in and around the infarct and the exacerbation of tissue damage was absolutely complement dependent. Similar observations were made in the middle cerebral artery occlusion model of stroke in rats (3).\nThe design of the first small molecule inhibitor of CRP binding for use in vivo, bis(phosphocholine)hexane (BPC6), enabled conclusive confirmation of the pathogenic role of human CRP in exacerbating tissue damage after ischaemic infarction (2).\nBPC6 and BPC8 are avidly bound by CRP, cross linking pairs of the native pentameric protein molecules. […] However, the bis(phosphocholine)alkane series of compounds were difficult to synthesise and purify at scale."}, "[5]": {"conditions": "0.73 μM native pentameric CRP, TC buffer, 1 h at room temperature, read-out: IC50"}, "[6]": {"conditions": "alternative stereoisomers of the formula (I) structure, read-out: IC50 of alternative stereoisomers (QA,QA: Quinuclidine, Amino Acid)"}}, "note": "Where two headings read alike, the source gives them in different places.", "data": [{"smiles": "O=C(N[C@@H](C(=O)O)C1CN2CCC1CC2)c1ccc(C(=O)N[C@@H](C(=O)O)C2CN3CCC2CC3)cc1", "note": "(stereo partly drawn) [Example 1, (R,2R,2′R)-2,2′-(terephthaloylbis(azanediyl))bis(2-((R)-quinuclidin-3-yl)acetic acid)]", "values": [{"measurement": "IC50", "setting": "CRP [1]; [5]", "value": 0.6, "unit": "µM"}]}, {"smiles": "O=C(N[C@@H](C(=O)O)[C@H]1CN2CCC1CC2)c1ccc(C(=O)N[C@@H](C(=O)O)[C@H]2CN3CCC2CC3)nn1", "note": "[Example 4, (R,2R,2′R)-2,2′-((pyridazine-3,6-dicarbonyl)bis(azanediyl))bis(2-((R)-quinuclidin-3-yl)acetic acid)]", "values": [{"measurement": "IC50", "setting": "CRP [1]; [5]", "value": 0.58, "unit": "µM"}]}, {"smiles": "O=C(NC(C(=O)O)C1CN2CCC1CC2)c1ccc(C(=O)NC(C(=O)O)C2CN3CCC2CC3)cc1", "note": "(single isomer, unassigned) [SS,SS]", "values": [{"measurement": "IC50", "setting": "CRP [1]; [6]", "value": 34.4, "unit": "µM"}]}, {"smiles": "Cc1cc(C(=O)N[C@@H](C(=O)O)[C@H]2CN3CCC2CC3)ccc1-c1ccc(C(=O)N[C@@H](C(=O)O)[C@H]2CN3CCC2CC3)cc1", "note": "[Example 6, (R)-2-(4′-(((R)-carboxy((R)-quinuclidin-3-yl)methyl)carbamoyl)-2′-methyl-[1,1′-biphenyl]-4-ylcarboxamido)-2-((R)-quinuclidin-3-yl)acetic acid]", "values": [{"measurement": "IC50", "setting": "CRP [1]; [5]", "value": 0.56, "unit": "µM"}]}, {"smiles": "O=C(N[C@@H](C(=O)O)[C@H]1CN2CCC1CC2)c1ccc(-c2ccc(C(=O)N[C@@H](C(=O)O)[C@H]3CN4CCC3CC4)cc2)cc1", "note": "[Example 5, (R)-2-(4′-(((R)-carboxy((R)-quinuclidin-3-yl)methyl)carbamoyl)-[1,1′-biphenyl]-4-ylcarboxamido)-2-((R)-quinuclidin-3-yl)acetic acid]", "values": [{"measurement": "IC50", "setting": "CRP [1]; [5]", "value": 0.73, "unit": "µM"}]}, {"smiles": "O=C(N[C@@H](C(=O)O)[C@H]1CN2CCC1CC2)c1ccc(C(=O)N[C@@H](C(=O)O)[C@H]2CN3CCC2CC3)nc1", "note": "[Example 2, (R,2R,2′R)-2,2′-((pyridine-2,5-dicarbonyl)bis(azanediyl))bis(2-((R)-quinuclidinyl)acetic acid)]", "values": [{"measurement": "IC50", "setting": "CRP [1]; [5]", "value": 0.65, "unit": "µM"}]}, {"smiles": "Cc1cc(C(=O)N[C@@H](C(=O)O)[C@H]2CN3CCC2CC3)c(C)cc1C(=O)N[C@@H](C(=O)O)[C@H]1CN2CCC1CC2", "note": "[Example 8]", "values": [{"measurement": "IC50", "setting": "CRP [1]; [5]", "value": 0.59, "unit": "µM"}]}, {"smiles": "Cc1cc(C(=O)N[C@@H](C(=O)O)[C@H]2CN3CCC2CC3)ccc1C(=O)N[C@@H](C(=O)O)[C@H]1CN2CCC1CC2", "note": "[Example 9]", "values": [{"measurement": "IC50", "setting": "CRP [1]; [5]", "value": 0.55, "unit": "µM"}]}, {"smiles": "O=C(N[C@@H](C(=O)O)[C@H]1CN2CCC1CC2)c1cccc(C(=O)N[C@@H](C(=O)O)[C@H]2CN3CCC2CC3)c1", "note": "[Example 11, 2-[[3-[[carboxy-1(3R)-quinuclidin-3-yl]methyl]carbamoyl]benzoylamino]-2-[(3R)-quinuclidin-3-yl]acetic acid]", "values": [{"measurement": "IC50", "setting": "CRP [1]; [5]", "value": 2.02, "unit": "µM"}]}, {"smiles": "C[N+](C)(C)CCOP(=O)([O-])OCCCCCCOP(=O)([O-])OCC[N+](C)(C)C", "note": "[BPC6, bis(phosphocholine)hexane]", "values": [{"measurement": "increased damage caused by human CRP after coronary artery ligation", "setting": "CRP [2]", "value": "completely abrogated the increased damage"}]}, {"smiles": "O=C(NC(C(=O)O)C1CN2CCC1CC2)c1ccc(C(=O)NC(C(=O)O)C2CN3CCC2CC3)cc1", "note": "(single isomer, unassigned) [SR,SR]", "values": [{"measurement": "IC50", "setting": "CRP [1]; [6]", "value": "> 1000", "unit": "µM"}]}, {"smiles": "O=C(NC(C(=O)O)C1CN2CCC1CC2)c1ccc(C(=O)NC(C(=O)O)C2CN3CCC2CC3)cc1", "note": "(single isomer, unassigned) [RS,RR]", "values": [{"measurement": "IC50", "setting": "CRP [1]; [6]", "value": "> 1000", "unit": "µM"}]}, {"smiles": "O=C(NC(C(=O)O)C1CN2CCC1CC2)c1ccc(C(=O)NC(C(=O)O)C2CN3CCC2CC3)cc1", "note": "(single isomer, unassigned) [RS,RS]", "values": [{"measurement": "IC50", "setting": "CRP [1]; [6]", "value": "> 1000", "unit": "µM"}]}, {"smiles": "C[N+](C)(C)CCOP(=O)(O)OCCCCCCCCOP(=O)(O)OCC[N+](C)(C)C", "note": "[Example 12, bis(phosphocholine)octane]", "values": [{"measurement": "IC50", "setting": "CRP [1]; [5]", "value": 1.2, "unit": "µM"}, {"measurement": "potency as inhibitor of CRP binding in vitro, compared with BPC6", "setting": "CRP [3]", "value": "more potent inhibitor of CRP binding in vitro"}, {"measurement": "protective effect against human CRP pathogenicity", "setting": "CRP [4]", "value": "same protective effect"}]}, {"smiles": "O=C(N[C@@H](C(=O)O)[C@H]1CN2CCC1CC2)c1cc(OCc2ccccc2)c(C(=O)N[C@@H](C(=O)O)[C@H]2CN3CCC2CC3)cc1OCc1ccccc1", "note": "[Example 10]", "values": [{"measurement": "IC50", "setting": "CRP [1]; [5]", "value": 0.67, "unit": "µM"}]}, {"smiles": "O=C(N[C@@H](C(=O)O)[C@H]1CN2CCC1CC2)c1cnc(C(=O)N[C@@H](C(=O)O)[C@H]2CN3CCC2CC3)cn1", "note": "[Example 3, (R,2R,2′R)-2,2′-((pyrazine-2,5-dicarbonyl)bis(azanediyl))bis(2-((R)-quinuclidinyl)acetic acid)]", "values": [{"measurement": "IC50", "setting": "CRP [1]; [5]", "value": 1.22, "unit": "µM"}]}, {"smiles": "O=C(N[C@@H](C(=O)O)[C@H]1CN2CCC1CC2)c1ccc2cc(C(=O)N[C@@H](C(=O)O)[C@H]3CN4CCC3CC4)ccc2c1", "note": "[Example 7, (R,2R,2′R)-2,2′-((naphthalene-2,6-dicarbonyl)bis(azanediyl))bis(2-((R)-quinuclidin-3-yl)acetic acid)]", "values": [{"measurement": "IC50", "setting": "CRP [1]; [5]", "value": 0.51, "unit": "µM"}]}]}
